Values after ≈ are worked out from the molar mass of the structure shown.
Key:
C. albicans = assay: Antimicrobial susceptibility testing (microdilution MIC90), C. albicans strains; assay type: cell-based; conditions: Candida albicans; C. albicans (22 strains tested); 24 h, visually and spectrophotometrically
Protocol: (§1) Sterile plastic microtitration plates containing flat-bottomed wells were used. The plates contained serial dilution of the antifungal agents with a volume of assay medium of 100 μL/well. Two drug-free medium wells were used as sterility and growth controls. The trays were inoculated with 100 μL/well of the final inoculum, with the exception of sterility control wells. […] The microtitration plates were incubated at 37° C. for 24 h. The minimal inhibitory concentrations (MICs) were determined at 24 h both visually and spectrophotometrically measuring the turbidity at 595 nm with a Varian model 1475 spectrophotometer. Results of biological tests are shown in Table 2, biological data are reported as MIC90 that is the minimum concentration required to inhibit the growth of at least the 90% of the strains tested for each species.

C. guilliermondii = assay: Antimicrobial susceptibility testing (microdilution MIC90), C. guilliermondii strains; assay type: cell-based, Candida guilliermondii; conditions: Meyerozyma guilliermondii; C. guilliermondii (10 strains tested); 24 h
Protocol: as §1

C. krusei = assay: Antimicrobial susceptibility testing (microdilution MIC90), C. krusei strains; assay type: cell-based, Candida krusei; conditions: Pichia kudriavzevii; C. krusei (13 strains tested); 24 h; read-out: MIC90
Protocol: as §1

C. parapsilosis = assay: Antimicrobial susceptibility testing (microdilution MIC90), C. parapsilosis strains; assay type: cell-based, Candida parapsilosis; conditions: Lodderomyces parapsilosis; C. parapsilosis (24 strains tested); 24 h
Protocol: as §1

C. tropicalis = assay: Antimicrobial susceptibility testing (microdilution MIC90), C. tropicalis strains; assay type: cell-based; conditions: Candida tropicalis; C. tropicalis (11 strains tested); 24 h
Protocol: as §1

C. kefyr = assay: Antimicrobial susceptibility testing (microdilution MIC90), C. kefyr strains; assay type: cell-based, Candida kefyr; conditions: Kluyveromyces marxianus; C. kefyr (10 strains tested); 24 h
Protocol: as §1

C. glabrata = assay: Antimicrobial susceptibility testing (microdilution MIC90), C. glabrata strains; assay type: cell-based, Candida glabrata; conditions: Nakaseomyces glabratus; C. glabrata (26 strains tested); 24 h
Protocol: as §1

[1] = tested on: C. albicans fluconazole resistant strains; assay: microbe, parasite or virus in culture; assay type: cell-based; conditions: Candida albicans, 24 h
[2] = tested on: C. glabrata fluconazole resistant strains; assay: microbe, parasite or virus in culture; assay type: cell-based, Candida glabrata; conditions: Nakaseomyces glabratus, 24 h
[3] = tested on: chitinase enzyme extracted from Trichoderma viride; assay: Chitinase inhibition assay (NP-GlcNAc substrate); assay type: biochemical
Protocol: Chitinase inhibition assays were conducted against an example of the GH18 family of chitinases, i.e the chitinase enzyme extracted from Trichoderma viride. This enzyme has an high degree of identity compared to chitinase 4 of Candida albicans, and is commercially available from Sigma-Aldrich (catalogue ID: C8241).
The substrate used was the NP-GlcNAc (Sigma-Aldrich, catalogue ID: N9376) dissolved in MES 50 mM at pH6.0; the final concentration was 250 μM. The enzyme was resuspended at 0.11 mg/ml in MES 50 mM at pH 6.0, with a final concentration for the assay of 73 nM diluting with MES 50 mM and BSA 20 μg/ml at pH 6.0. A stock solution of the inhibitors was prepared at 50 mM in DMSO 100%.
The mixture with the inhibitor at various concentrations and the enzyme was prepared directly into the reading plate and left to incubate at room temperature for 20 minutes or three hours. At the end of the incubation times, the substrate was added and the reading was conducted by recording the values up to a maximum time of 10 minutes. The substrate concentration was measured by reading UV absorption at 300 nm (εM^300: 11100), while, the product of hydrolysis were measured at 400 nm (ΔεM^400: 2120). Both IC50 and Ki can be calculated.

[4] = strain DSY284, ERG11 Mutation, mean of three measurements
[5] = strain DSY289, ERG11 Mutation (2)
[6] = strain DSY291, ERG11 Mutation (2)
[7] = strain DSY292, ERG11 Mutation (3)
[8] = strain DSY751, ↑MDR1, ERG11 Mutation
[9] = Enz.-inhib. incubation time 20 min
[10] = Enz.-inhib. incubation time 3 h

Row | SMILES | MIC90 (C. albicans) [µg/mL] | MIC90 (C. guilliermondii) [µg/mL] | MIC90 (C. krusei) [µg/mL] | MIC90 (C. parapsilosis) [µg/mL] | MIC90 (C. tropicalis) [µg/mL] | MIC90 (C. kefyr) [µg/mL] | MIC90 (C. glabrata) [µg/mL] | MIC [1, 4] [µg/mL] | MIC [1, 5] [µg/mL] | MIC [1, 6] [µg/mL] | MIC [1, 7] [µg/mL] | MIC ([1]; strain DSY296, ERG11 Mutation) [µg/mL] | MIC ([1]; strain DSY348, ERG11 Mutation) [µg/mL] | MIC ([1]; strain DSY732, ↑CDR1-CDR2) [µg/mL] | MIC ([1]; strain DSY735, ↑CDR1-CDR2) [µg/mL] | MIC ([1]; strain DSY750, ↑MDR1) [µg/mL] | MIC [1, 8] [µg/mL] | MIC ([1]; strain DSY775, ERG11 Mutation) [µg/mL] | MIC ([1]; strain DSY2323, ↑CDR2-MDR1) [µg/mL] | MIC ([2]; strain DSY530, ↑CDR1) [µg/mL] | further results
1 | C/C=C/CNC(=N)NCCCCCCCCN1CCCCCOc2ccccc2CNC(=N)NC1=O [Example 17, 1-[(E)-but-2-enyl]-3-[8-(4-imino-6-oxo-13-oxa-3,5,7-triazabicyclo[12.4.0]octadeca-1(14),15,17-trien-7-yl)octyl]guanidine] | 4 (≈ 8 µM) | 2 (≈ 4 µM) | 8 (≈ 16 µM) | 2 (≈ 4 µM) | 2 (≈ 4 µM) | 4 (≈ 8 µM) | 8 (≈ 16 µM) | 2 (≈ 4 µM) | 2 (≈ 4 µM) | 4 (≈ 8 µM) | 4 (≈ 8 µM) | 4 (≈ 8 µM) | 2 (≈ 4 µM) | 2 (≈ 4 µM) | 2 (≈ 4 µM) | 4 (≈ 8 µM) | 4 (≈ 8 µM) | 4 (≈ 8 µM) | 4 (≈ 8 µM) | 8 (≈ 16 µM) | MIC ([2]; strain DSY754, ↑CDR1): 16 µg/mL (≈ 32 µM); MIC ([2]; strain DSY756, ↑CDR1-CDR2-SNQ2): 8 µg/mL (≈ 16 µM); MIC ([2]; strain DSY2254, ↑CDR1-CDR2): 16 µg/mL (≈ 32 µM); MIC ([2]; strain DSY2271, ↑CDR2): 8 µg/mL (≈ 16 µM); inhibition of the chitinase enzyme [3]: active inhibitor; IC50 [3, 9]: 151 µM; Ki [3, 9]: 48.8 µM; IC50 [3, 10]: 55 µM; Ki [3, 10]: 17.8 µM
2 | C/C=C/CNC(=N)NCCCCCCCCN1CCCCCCOc2ccccc2CNC(=N)NC1=O [Example 18, 1-[(E)-but-2-enyl]-3-[8-(4-imino-6-oxo-14-oxa-3,5,7-triazabicyclo[13.4.0]nonadeca-1(15), 16,18-trien-7-yl)octyl]guanidine] | 4 (≈ 7.79 µM) | 2 (≈ 3.89 µM) | 4 (≈ 7.79 µM) | 2 (≈ 3.89 µM) | 1 (≈ 1.95 µM) | 2 (≈ 3.89 µM) | 16 (≈ 31.1 µM) | 8 (≈ 15.6 µM) | 8 (≈ 15.6 µM) | 16 (≈ 31.1 µM) | 16 (≈ 31.1 µM) | 16 (≈ 31.1 µM) | 8 (≈ 15.6 µM) | 16 (≈ 31.1 µM) | 16 (≈ 31.1 µM) | 16 (≈ 31.1 µM) | 16 (≈ 31.1 µM) | 16 (≈ 31.1 µM) | 16 (≈ 31.1 µM) | 32 (≈ 62.3 µM) | MIC ([2]; strain DSY754, ↑CDR1): 32 µg/mL (≈ 62.3 µM); MIC ([2]; strain DSY756, ↑CDR1-CDR2-SNQ2): 64 µg/mL (≈ 125 µM); MIC ([2]; strain DSY2254, ↑CDR1-CDR2): 64 µg/mL (≈ 125 µM); MIC ([2]; strain DSY2271, ↑CDR2): 32 µg/mL (≈ 62.3 µM)

— patent US10071975B2, “Macrocyclic amidinourea derivatives, methods of preparation and uses thereof as chitinase inhibitors” (CYGNET BIOSCIENCES B.V., priority 2013, dated 2018)
